Earlier results in patent US6573290B1 (ILEX Oncology, Inc., priority 1999, dated 2003).

Legend:
Ki-ras mutations = details: AOM-treated rats; reduced from 90%
tumor putrescine = details: DFMO infusion, rat-tumor model
prostoglandin E2 (PGE2) = details: 300 mg/day, one month phase IIa trial
[1] = not given; remark: listed apart in the source

SMILES: CN1C(C(=O)Nc2ccccn2)=C(O)c2ccccc2S1(=O)=O [piroxicam]
- number of tumors harboring Ki-ras mutations (Ki-ras mutations): 25%

SMILES: NCCCC(N)(C(=O)O)C(F)F (racemic) [DFMO, 2-(difluoromethyl)-DL-ornithine]
- number of tumors harboring Ki-ras mutations (Ki-ras mutations): 36%
- decrease in tumor putrescine levels (tumor putrescine): 90%

SMILES: COc1ccc2[nH]c([S+]([O-])Cc3ncc(C)c(OC)c3C)nc2c1 (stereo not shown) [omeprazole]
- adverse effect: dizziness (in vivo): 2%

SMILES: CC(C)Cc1ccc(C(C)C(=O)O)cc1 (stereo not shown) [ibuprofen]
- PGE2 levels in flat mucosa (prostoglandin E2 (PGE2)): significant decrease

SMILES: Cc1c(OCC(F)(F)F)ccnc1C[S+]([O-])c1nc2ccccc2[nH]1 (stereo not shown) [lansoprazole]
- adverse effect: diarrhea (in vivo): 8%
- adverse effect: headache (in vivo): 5%
- adverse effect: nausea (in vivo): 3%

SMILES: CC[C@H]1OC(=O)[C@H](C)[C@@H](O[C@H]2C[C@@](C)(OC)[C@@H](O)[C@H](C)O2)[C@H](C)[C@@H](O[C@@H]2O[C@H](C)C[C@H](N(C)C)[C@H]2O)[C@](C)(OC)C[C@@H](C)C(=O)[C@H](C)[C@@H](O)[C@]1(C)O [clarithrymycin]
- adverse effect: pseudomembranous colitis: 1%
- adverse effect: diarrhea (in vivo): 10%

SMILES: Cc1ccc(-c2cc(C(F)(F)F)nn2-c2ccc(S(N)(=O)=O)cc2)cc1 [celecoxib, 4-[5-(4-methyphenyl)-3-(trifluoromethyl)-1H-pyrazol-1-yl]benzenesulfonamide]
- time of peak plasma levels ([1]; after an oral dose): roughly 3 hours
- effective half-life ([1]; fasted conditions): roughly 11 hours
- dose excreted in feces ([1]; following a single dose): 57%
- dose excreted in urine ([1]; following a single dose): 27%
- delay of plasma levels with high fat meal ([1]; taken with a high fat meal): 1 to 2 h
- increase in total absorption with high fat meal ([1]; taken with a high fat meal): 10-20%
- protein binding ([1]; within the clinical dose range): highly protein bound

SMILES: Cc1ncc([N+](=O)[O-])n1CCO [metronidazole]
- adverse effect: disulfiram-like reaction with alcohol ingestion (in vivo): 20%
- adverse effect: rash (in vivo): 5%
